The term Ki denotes the dissociation constant of the complex between target and ligand, obtained from inhibition or displacement. The low end stands for tighter binding, the high end for weaker binding.

These results are taken from patent publication US9469615B2, “Quinoxalines and AZA-quinoxalines as CRTH2 receptor modulators” (Merck Sharp & Dohme Corp., priority 2010, dated 2016).

One assay addresses T1, hCRTH2 (Homo sapiens, UniProt Q9Y5Y4).
T1 construct: expressed in transfected cells; host or cells: HEK (human embryonic kidney) cells expressing hCRTH2; membrane preparation
T1 sequence (Q9Y5Y4 1-395): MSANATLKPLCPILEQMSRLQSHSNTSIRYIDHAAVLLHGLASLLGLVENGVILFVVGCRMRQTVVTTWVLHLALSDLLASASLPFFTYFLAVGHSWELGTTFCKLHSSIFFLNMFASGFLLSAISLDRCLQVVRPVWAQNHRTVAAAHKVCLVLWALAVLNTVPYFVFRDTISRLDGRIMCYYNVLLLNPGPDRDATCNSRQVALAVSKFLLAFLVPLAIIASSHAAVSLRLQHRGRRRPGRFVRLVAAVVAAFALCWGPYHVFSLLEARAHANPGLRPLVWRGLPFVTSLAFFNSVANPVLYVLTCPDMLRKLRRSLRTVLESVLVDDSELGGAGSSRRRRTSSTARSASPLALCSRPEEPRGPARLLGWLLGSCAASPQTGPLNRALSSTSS
Description: Radioligand binding assay ([3H]PGD2 competition, HEK-hCRTH2 membranes). The following applies: [3H]PGD2 binding, values in text. An outline of the steps:
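Competition against 3.0 nM [3H]PGD2 was run for 60 min at room temperature in pH 7.4 Tris-HCl buffer with EDTA, 2 mM MnCl2 and 1% DMSO, using 8-20 μg HEK-hCRTH2 membrane protein. 10 μM PGD2 set non-specific binding; filter-bound counts were read by scintillation.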
`O=C(O)CCCCc1nc2cc(C(=O)N[C@H]3CCOc4ccccc43)ccc2nc1-c1ccc(Cl)cc1` [compound 507, (S)-5-(3-(4-chlorophenyl)-7-(chroman-4-ylcarbamoyl)quinoxalin-2-yl)pentanoic acid]: the affinity, expressed as Ki, was 1.3 nM.

The assay is the same for the next values; noted with them: [3H]PGD2 competition, Table B.
For the compound `C[C@H](CCCc1nc2cc(C(=O)N[C@H](C)c3ccc(F)cc3)ccc2nc1-c1ccc(F)cc1)C(=O)O` [compound 479], the inhibition constant (Ki) was in the range of 20.1 to 200 nM.

With `O=C(N[C@@H]1CCCc2cc(F)ccc21)c1ccc2nc(-c3ccccc3)c(CCCC(F)(F)C(=O)O)nc2c1` [compound 480, (R)-2,2-difluoro-5-(7-((6-fluoro-1,2,3,4-tetrahydronaphthalen-1-yl)carbamoyl)-3-phenylquinoxalin-2-yl)pentanoic acid], the Ki lay in the range of 2.1 to 20 nM.

`C[C@H](CCCc1nc2cc(C(=O)N[C@@H](C)c3ccc(F)cc3)ccc2nc1-c1ccc(F)cc1)C(=O)O` [compound 481, (R)-5-(3-(4-fluorophenyl)-7-(((S)-1-(4-fluorophenyl)ethyl)carbamoyl)quinoxalin-2-yl)-2-methylpentanoic acid] displayed an inhibition constant Ki of 20.1 to 200 nM.

The compound `C[C@@H](CCCc1nc2cc(C(=O)N[C@@H]3CCCc4ccccc43)ccc2nc1-c1ccc(F)cc1)C(=O)O` [compound 482, (S)-5-(3-(4-fluorophenyl)-7-(((R)-1,2,3,4-tetrahydronaphthalen-1-yl)carbamoyl)quinoxalin-2-yl)-2-methylpentanoic acid] displayed an inhibition constant Ki of 2.1 to 20 nM.

Compound `C[C@@H](CCCc1nc2cc(C(=O)N[C@H]3CCCc4ccccc43)ccc2nc1-c1ccc(F)cc1)C(=O)O` [compound 483, (S)-5-(3-(4-fluorophenyl)-7-(((S)-1,2,3,4-tetrahydronaphthalen-1-yl)carbamoyl)quinoxalin-2-yl)-2-methylpentanoic acid] had a Ki of 2.1 to 20 nM.

In the case of `C[C@@H](CCCc1nc2cc(C(=O)N[C@H](C)c3ccc(F)cc3)ccc2nc1-c1ccc(F)cc1)C(=O)O` [compound 484, (S)-5-(3-(4-fluorophenyl)-7-(((R)-1-(4-fluorophenyl)ethyl)carbamoyl)quinoxalin-2-yl)-2-methylpentanoic acid], the inhibitory constant (Ki) was in the range of 2.1 to 20 nM.

`C[C@H](NC(=O)c1ccc2nc(-c3ccc(F)cc3)c(CCC[C@H](C)C(=O)O)nc2c1)c1ccc(F)cc1` [compound 485, (S)-5-(3-(4-fluorophenyl)-7-(((S)-1-(4-fluorophenyl)ethyl)carbamoyl)quinoxalin-2-yl)-2-methylpentanoic acid] returned a Ki of 2.1 to 20 nM.

`O=C(N[C@@H]1CCCc2ccccc21)c1ccc2nc(-c3ccc(F)cc3)c(CCCC(F)(F)C(=O)O)nc2c1` [compound 486, (R)-2,2-difluoro-5-(3-(4-fluorophenyl)-7-((1,2,3,4-tetrahydronaphthalen-1-yl)carbamoyl)quinoxalin-2-yl)pentanoic acid] had a Ki of 2.1 to 20 nM.

Consider `C[C@@H](NC(=O)c1ccc2nc(-c3ccc(F)cc3)c(CCCC(F)(F)C(=O)O)nc2c1)c1ccc(F)cc1` [compound 487, (R)-2,2-difluoro-5-(3-(4-fluorophenyl)-7-((1-(4-fluorophenyl)ethyl)carbamoyl)quinoxalin-2-yl) pentanoic acid], for which the Ki fell in the range of 20.1 to 200 nM.

On to `C[C@@H]1CN(c2ccc(F)cc2)CCN1C(=O)c1ccc2nc(-c3ccc(Cl)cc3)c(CCCCC(=O)O)nc2c1` [compound 488, (R)-5-(3-(4-chlorophenyl)-7-(4-(4-fluorophenyl)-2-methylpiperazine-1-carbonyl)quinoxalin-2-yl)pentanoic acid], for which the Ki lay in the range of 2.1 to 20 nM.

`C[C@@H]1CN(c2ccc(F)cc2)CCN1C(=O)c1ccc2nc(-c3ccc(F)cc3)c(CCCCC(=O)O)nc2c1` [compound 489, (R)-5-(3-(4-fluorophenyl)-7-(4-(4-fluorophenyl)-2-methylpiperazine-1-carbonyl)quinoxalin-2-yl)pentanoic acid] displayed a Ki of 2.1 to 20 nM.

Compound `C[C@H]1CN(c2ccc(F)cc2)CCN1C(=O)c1ccc2nc(-c3ccc(Cl)cc3)c(CCCCC(=O)O)nc2c1` [compound 490, (S)-5-(3-(4-chlorophenyl)-7-(4-(4-fluorophenyl)-2-methylpiperazine-1-carbonyl)quinoxalin-2-yl)pentanoic acid] registered a Ki of 2.1 to 20 nM.

Consider `O=C(O)CCCCc1nc2cc(C(=O)N[C@@H]3CCOc4ccccc43)ccc2nc1-c1ccc(F)cc1` [compound 491, (R)-5-(7-(chroman-4-ylcarbamoyl)-3-(4-fluorophenyl)quinoxalin-2-yl)pentanoic acid], for which the inhibition constant (Ki) fell in the range of 0.1 to 2 nM.

On to `O=C(O)CCCCc1nc2cc(C(=O)N[C@H]3CCOc4ccccc43)ccc2nc1-c1ccc(F)cc1` [compound 492, (S)-5-(7-(chroman-4-ylcarbamoyl)-3-(4-fluorophenyl)quinoxalin-2-yl)pentanoic acid], for which the inhibition constant Ki is 2.1 to 20 nM.

In turn, `C[C@@H](NC(=O)c1ccc2nc(-c3ccc(Cl)cc3)c(CCCCC(=O)O)nc2c1)c1cccc2ccccc12` [compound 493, (R)-5-(3-(4-chlorophenyl)-7-((1-(naphthalen-1-yl)ethyl)carbamoyl)quinoxalin-2-yl)pentanoic acid] yielded an inhibitory constant (Ki) of 2.1 to 20 nM.

Compound `C[C@H](NC(=O)c1ccc2nc(-c3ccc(Cl)cc3)c(CCCCC(=O)O)nc2c1)c1cccc2ccccc12` [compound 494, (S)-5-(3-(4-chlorophenyl)-7-((1-(naphthalen-1-yl)ethyl)carbamoyl)quinoxalin-2-yl)pentanoic acid] yielded an inhibition constant (Ki) of 2.1 to 20 nM.

With `C[C@@H](NC(=O)c1ccc2nc(-c3ccc(Cl)cc3)c(CCCCC(=O)O)nc2c1)c1ccc2ccccc2c1` [compound 495, (R)-5-(3-(4-chlorophenyl)-7-((1-(naphthalen-2-yl)ethyl)carbamoyl)quinoxalin-2-yl)pentanoic acid], the Ki lay in the range of 2.1 to 20 nM.

For the compound `C[C@H](NC(=O)c1ccc2nc(-c3ccc(Cl)cc3)c(CCCCC(=O)O)nc2c1)c1ccc2ccccc2c1` [compound 496, (S)-5-(3-(4-chlorophenyl)-7-((1-(naphthalen-2-yl)ethyl)carbamoyl)quinoxalin-2-yl)pentanoic acid], the Ki is 2.1 to 20 nM.

`C[C@H]1CN(c2ccc(F)cc2)CCN1C(=O)c1ccc2nc(-c3ccc(F)cc3)c(CCCCC(=O)O)nc2c1` [compound 497, (S)-5-(3-(4-fluoro-phenyl)-7-(4-(4-fluorophenyl)-2-methylpiperazine-1-carbonyl)quinoxalin-2-yl)pentanoic acid] came in with an inhibition constant Ki of 2.1 to 20 nM.

The compound `C[C@@H]1CN(c2ccccc2)CCN1C(=O)c1ccc2nc(-c3ccc(Cl)cc3)c(CCCCC(=O)O)nc2c1` [compound 498, (R)-5-(3-(4-chlorophenyl)-7-(2-methyl-4-phenyl-piperazine-1-carbonyl)quinoxalin-2-yl)pentanoic acid] had an inhibitory constant (Ki) of 2.1 to 20 nM.

As to `C[C@@H]1CN(c2ccccc2)CCN1C(=O)c1ccc2nc(-c3ccc(F)cc3)c(CCCCC(=O)O)nc2c1` [compound 499, (R)-5-(3-(4-fluorophenyl)-7-(2-methyl-4-phenyl-piperazine-1-carbonyl)quinoxalin-2-yl)pentanoic acid], the Ki fell in the range of 2.1 to 20 nM.

In turn, `O=C(N[C@@H]1CCCc2ccccc21)c1ccc2nc(-c3ccc(F)cc3)c(CC[C@@H]3C[C@H]3C(=O)O)nc2c1` [compound 500, (1R,2R)-2-(2-(3-(4-fluorophenyl)-7-(((R)-1,2,3,4-tetrahydronaphthalen-1-yl)carbamoyl)quinoxalin-2-yl)ethyl)cyclopropane-carboxylic acid] came in with a Ki of 2.1 to 20 nM.

Consider `O=C(N[C@@H]1CCCc2ccccc21)c1ccc2nc(-c3ccc(F)cc3)c(CCC3CC3C(=O)O)nc2c1` (stereo partly drawn) [compound 501, 2-(2-(3-(4-fluorophenyl)-7-(((R)-1,2,3,4-tetrahydronaphthalen-1-yl)carbamoyl)quinoxalin-2-yl)ethyl)cyclopropane-carboxylic acid], for which the Ki was in the range of 20.1 to 200 nM.

With `O=C(O)CCCCc1nc2cc(C(=O)NC3CCCc4cc(C(F)(F)F)cnc43)ccc2nc1-c1ccccc1` (stereo not shown) [compound 502, 5-(3-phenyl-7-((3-(trifluoromethyl)-5,6,7,8-tetrahydroquinolin-8-yl)carbamoyl)quinoxalin-2-yl)pentanoic acid], the Ki was in the range of 20.1 to 200 nM.

`O=C(O)CCCCc1nc2cc(C(=O)N[C@@H]3CCCc4ncccc43)ccc2nc1-c1ccccc1` [compound 503, (R)-5-(3-phenyl-7-((5,6,7,8-tetrahydroquinolin-5-yl)carbamoyl)quinoxalin-2-yl)pentanoic acid] had an inhibition constant (Ki) of 20.1 to 200 nM.

Regarding `O=C(O)CCCCc1nc2cc(C(=O)N[C@H]3CCCc4ncccc43)ccc2nc1-c1ccccc1` [compound 504, (S)-5-(3-phenyl-7-((5,6,7,8-tetrahydroquinolin-5-yl)carbamoyl)quinoxalin-2-yl)pentanoic acid], the Ki was in the range of 2.1 to 20 nM.

`O=C(O)CCCCc1nc2cc(C(=O)NC3CCCc4cnccc43)ccc2nc1-c1ccccc1` (stereo not shown) [compound 505, 5-(3-phenyl-7-((5,6,7,8-tetrahydroisoquinolin-5-yl)carbamoyl)quinoxalin-2-yl)pentanoic acid] yielded an inhibition constant Ki of 2.1 to 20 nM.

With `O=C(O)CCCCc1nc2cc(C(=O)N[C@@H]3CCOc4ccccc43)ccc2nc1-c1ccc(Cl)cc1` [compound 506], the Ki fell in the range of 0.1 to 2 nM.

In the case of `O=C(O)CCCCc1nc2cc(C(=O)N[C@H]3CCOc4ccccc43)ccc2nc1-c1ccc(Cl)cc1` [compound 507, (S)-5-(3-(4-chlorophenyl)-7-(chroman-4-ylcarbamoyl)quinoxalin-2-yl)pentanoic acid], the Ki fell in the range of 0.1 to 2 nM.

Consider `O=C(O)CCCCc1nc2cc(C(=O)N[C@H]3c4ccccc4C[C@H]3O)ccc2nc1-c1ccc(F)cc1` [compound 508, 5-(3-(4-fluorophenyl)-7-(((1S,2R)-2-hydroxy-2,3-dihydro-1H-inden-1-yl)carbamoyl)quinoxalin-2-yl)pentanoic acid], for which the Ki lay in the range of 2.1 to 20 nM.
